Like-named read-outs stand apart in the source and are kept apart here.
Columns and labels:
human M2 receptor [1] = molecular target: T1, human M2 receptor (Homo sapiens, UniProt P08172); type: cell-based; settings: shift in the acetylcholine dose-response curve (Allosteric EC50 shift, GraphPad PRISM); α >1 = positive cooperativity
T1 sequence (P08172 1-466): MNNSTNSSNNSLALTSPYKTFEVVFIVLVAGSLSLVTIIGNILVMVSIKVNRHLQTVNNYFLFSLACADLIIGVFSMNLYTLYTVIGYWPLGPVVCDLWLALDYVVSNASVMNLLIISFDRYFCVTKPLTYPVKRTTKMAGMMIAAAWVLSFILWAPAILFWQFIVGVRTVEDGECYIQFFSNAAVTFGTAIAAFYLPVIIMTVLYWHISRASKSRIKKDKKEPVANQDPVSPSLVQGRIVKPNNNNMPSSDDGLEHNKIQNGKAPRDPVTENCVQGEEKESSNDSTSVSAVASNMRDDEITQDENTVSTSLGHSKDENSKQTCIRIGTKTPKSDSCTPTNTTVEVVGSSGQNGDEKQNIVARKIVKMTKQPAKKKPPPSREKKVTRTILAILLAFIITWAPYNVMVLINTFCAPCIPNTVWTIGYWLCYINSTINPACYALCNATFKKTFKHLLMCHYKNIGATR

human M2 receptor [2] = molecular target: T1, human M2 receptor; settings: for EC50: acetylcholine at EC20, allosteric potency, in some cases mean values from two or more determinations; for Emax: read-out: Efficiency
[3] = Receptor activity EC50, M2-GIRK1/4 activation test

| Cooperativity (alpha factor) (human M2 receptor [1]) | EC50 (human M2 receptor [2]; read-out: Receptor activity EC50, M2-GIRK1/4 activation test) | EC50 (human M2 receptor [2]; [3]) | Structure (SMILES) | Emax (human M2 receptor [2]) |
| --- | --- | --- | --- | --- |
| 32 | 0.021 µM | – | CC[C@@H](NC(=O)c1cn(-c2c(F)cc(F)cc2F)c2nc(N3CCC(O)C3=O)ccc2c1=O)C(F)(F)F (stereo partly drawn) [Example 282, 7-[3-Hydroxy-2-oxopyrrolidin-1-yl-4-oxo-N-[(2R)-1,1,1-trifluorobutan-2-yl]-4-oxo-N-trifluorobutan-2-yl]-1-(2,4,6-trifluorophenyl)-1,4-dihydro-1,8-naphthyridine-3-carboxamide] | – |
| 3 | – | 0.094 µM | CC[C@H](NC(=O)c1cn(-c2ccc(F)cc2F)c2nc(N3CC=CC3=O)ccc2c1=O)C(F)(F)F [Example 286, 1-(2,4-Difluorophenyl)-4-oxo-7-(2-oxo-2,5-dihydro-1H-pyrrol-1-yl)-N-[(2S)-1,1,1-trifluorobutan-2-yl]-1,4-dihydro-1,8-naphthyridine-3-carboxamide] | – |
| 36 | – | 0.014 µM | CC[C@@H](NC(=O)c1cn(-c2c(F)cccc2Cl)c2nc(N3C[C@@H](O)CC3=O)ccc2c1=O)C(F)(F)F [Example 307, 1-(2-Chloro-6-fluorophenyl)-7-[(4S)-4-hydroxy-2-oxopyrrolidin-1-yl]-4-oxo-N-[(2R)-1,1,1-trifluorobutan-2-yl]-1,4-dihydro-1,8-naphthyridine-3-carboxamide] | – |
| 6 | – | 0.13 µM | CC[C@@H](NC(=O)c1cn(-c2ccc(F)cc2F)c2nc(N3CCNC3=O)ccc2c1=O)C(F)(F)F [Example 320, 1-(2,4-Difluorophenyl)-4-oxo-7-(2-oxoimidazolidin-1-yl)-N-[(2R)-1,1,1-trifluorobutan-2-yl]-1,4-dihydro-1,8-naphthyridine-3-carboxamide] | – |
| 16 | – | 0.076 µM | C[C@H](NC(=O)c1cn(-c2c(F)cccc2F)c2nc(N3C[C@@H](O)CC3=O)ccc2c1=O)C(F)(F)F [Example 329, 1-(2,6-Difluorophenyl)-7-[(4S)-4-hydroxy-2-oxopyrrolidin-1-yl]-4-oxo-N-[(2S)-1,1,1-trifluoropropan-2-yl]-1,4-dihydro-1,8-naphthyridine-3-carboxamide] | – |
| 7 | – | 0.033 µM | CC[C@H](NC(=O)c1cn(-c2c(F)cc(F)cc2F)c2nc(N3C[C@@](C)(O)C[C@H]3C)ccc2c1=O)C(F)(F)F [Example 331, 7-[(2R,4S)-4-Hydroxy-2,4-dimethylpyrrolidin-1-yl]-4-oxo-N-[(2S)-1,1,1-trifluorobutan-2-yl]-1-(2,4,6-trifluorophenyl)-1,4-dihydro-1,8-naphthyridine-3-carboxamide] | – |
| 7 | – | 0.023 µM | C[C@H](NC(=O)c1cn(-c2c(F)cc(F)cc2Cl)c2nc(N3CCC(C)(C)C3=O)ccc2c1=O)C(F)(F)F [Example 335, 1-(2-Chloro-4,6-difluorophenyl)-7-(3,3-dimethyl-2-oxopyrrolidin-1-yl)-4-oxo-N-[(2S)-1,1,1-trifluoropropan-2-yl]-1,4-dihydro-1,8-naphthyridine-3-carboxamide] | – |
| 13 | – | 0.012 µM | CC[C@H](NC(=O)c1cn(-c2c(F)cc(F)cc2Cl)c2nc(N3CCC(C)(C)C3=O)ccc2c1=O)C(F)(F)F [Example 336, 1-(2-Chloro-4,6-difluorophenyl)-7-(3,3-dimethyl-2-oxopyrrolidin-1-yl)-4-oxo-N-[(2S)-1,1,1-trifluorobutan-2-yl]-1,4-dihydro-1,8-naphthyridine-3-carboxamide] | – |
| 24 | – | 0.007 µM | O=C(N[C@@H](C1CC1)C(F)(F)F)c1cn(-c2c(F)cc(F)cc2Cl)c2nc(N3C[C@@H](O)CC3=O)ccc2c1=O [Example 338, 1-(2-Chloro-4,6-difluorophenyl)-N-[(1 S)-1-cyclopropyl-2,2,2-trifluoroethyl]-7-[(4S)-4-hydroxy-2-oxopyrrolidin-1-yl]-4-oxo-1,4-dihydro-1,8-naphthyridine-3-carboxamide] | – |
| 26 | – | 0.044 µM | C[C@@H](COC(F)(F)F)NC(=O)c1cn(-c2c(F)cc(F)cc2F)c2nc(N3C[C@@H](O)CC3=O)ccc2c1=O [Example 339, 7-[(4S)-4-Hydroxy-2-oxopyrrolidin-1-yl]-4-oxo-N-[(2S)-1-(trifluoromethoxy)propan-2-yl]-1-(2,4,6-trifluorophenyl)-1,4-dihydro-1,8-naphthyridine-3-carboxamide] | – |
| 22 | – | 0.01 µM | CC[C@H](NC(=O)c1cn(-c2c(F)cc(F)cc2Cl)c2nc(N3CCNC3=O)ccc2c1=O)C(F)(F)F [Example 340, 1-(2-Chloro-4,6-difluorophenyl)-4-oxo-7-(2-oxoimidazolidin-1-yl)-N-[(2S)-1,1,1-trifluorobutan-2-yl]-1,4-dihydro-1,8-naphthyridine-3-carboxamide] | – |
| 63 | – | 0.004 µM | CC(C)(C)[C@@H](NC(=O)c1cn(-c2c(F)cc(F)cc2F)c2nc(N3C[C@@H](O)CC3=O)ccc2c1=O)C(F)(F)F [Example 357, 7-[(4S)-4-Hydroxy-2-oxopyrrolidin-1-yl]-4-oxo-N-[(2R)-1,1,1-trifluoro-3,3-dimethylbutan-2-yl]-1-(2,4,6-trifluorophenyl)-1,4-dihydro-1,8-naphthyridine-3-carboxamide] | – |
| 31 | – | 0.024 µM | O=C(NC12CC(C1)C2)c1cn(-c2c(F)cc(F)cc2F)c2nc(N3C[C@@H](O)CC3=O)ccc2c1=O [Example 358, N-(Bicyclo[1.1.1]pent-1-yl)-7-[(4S)-4-hydroxy-2-oxopyrrolidin-1-yl]-4-oxo-1-(2,4,6-trifluorophenyl)-1,4-dihydro-1,8-naphthyridine-3-carboxamide] | – |
| 28 | – | 0.045 µM | O=C(N[C@@H](C1CC1)C(F)(F)F)c1cn(-c2c(F)cc(F)cc2F)c2nc(N3CCN(CCO)C3=O)ccc2c1=O [Example 363, N-[(1 S)-1-Cyclopropyl-2,2,2-trifluoroethyl]-7-[3-(2-hydroxyethyl)-2-oxoimidazolidin-1-yl]-4-oxo-1-(2,4,6-trifluorophenyl)-1,4-dihydro-1,8-naphthyridine-3-carboxamide] | – |
| 25 | – | 0.016 µM | O=C(N[C@@H](C1CC1)C(F)(F)F)c1cn(-c2c(F)cc(F)cc2F)c2nc(N3CCCN(CCO)C3=O)ccc2c1=O [Example 364, N-[(1 S)-1-Cyclopropyl-2,2,2-trifluoroethyl]-7-[3-(2-hydroxyethyl)-2-oxotetrahydropyrimidin-1(2H)-yl]-4-oxo-1-(2,4,6-trifluorophenyl)-1,4-dihydro-1,8-naphthyridine-3-carboxamide] | – |
| 20 | – | 0.021 µM | CC[C@H](NC(=O)c1cn(-c2c(F)cc(F)cc2F)c2nc(N3CCCN(CCO)C3=O)ccc2c1=O)C(F)(F)F [Example 365, 7-[3-(2-Hydroxyethyl)-2-oxotetrahydropyrimidin-1(2H)-yl]-4-oxo-N-[(2S)-1,1,1-trifluorobutan-2-yl]-1-(2,4,6-trifluorophenyl)-1,4-dihydro-1,8-naphthyridine-3-carboxamide] | – |
| 36 | – | 0.035 µM | O=C(NC12CC(C1)C2)c1cn(-c2c(F)cc(F)cc2F)c2nc(N3C[C@@H](O)[C@H](O)C3)ccc2c1=O [Example 366, N-(Bicyclo[1.1.1]pent-1-yl)-7-[(3R,4R)-3,4-dihydroxypyrrolidin-1-yl]-4-oxo-1-(2,4,6-trifluorophenyl)-1,4-dihydro-1,8-naphthyridine-3-carboxamide] | – |

| Structure (SMILES) | Cooperativity (alpha factor) (human M2 receptor [1]) | EC50 (human M2 receptor [2]; read-out: Receptor activity EC50, M2-GIRK1/4 activation test) | EC50 (human M2 receptor [2]; [3]) | Emax (human M2 receptor [2]) |
| --- | --- | --- | --- | --- |
| CC[C@H](NC(=O)c1cn(-c2ccc(F)cc2F)c2nc(N3C[C@H](O)CC3=O)ccc2c1=O)C(F)(F)F [Example 285, 1-(2,4-Difluorophenyl)-7-[(4R)-4-hydroxy-2-oxopyrrolidin-1-yl]-4-oxo-N-[(2S)-1,1,1-trifluorobutan-2-yl]-1,4-dihydro-1,8-naphthyridine-3-carboxamide] | 23 | – | 0.598 µM | 79.9% |
| CC[C@H](NC(=O)c1cn(-c2c(F)cccc2F)c2nc(N3C[C@@H](O)CC3=O)ccc2c1=O)C(F)(F)F [Example 333, 1-(2,6-Difluorophenyl)-7-[(4S)-4-hydroxy-2-oxopyrrolidin-1-yl]-4-oxo-N-[(2S)-1,1,1-trifluorobutan-2-yl]-1,4-dihydro-1,8-naphthyridine-3-carboxamide] | 28 | – | 0.031 µM | 94.5% |
| O=C(NC1(C(F)(F)F)CCCC1)c1cn(-c2c(F)cc(F)cc2F)c2nc(N3C[C@@H](O)[C@H](O)C3)ccc2c1=O [Example 350, 7-[(3R,4R)-3,4-Dihydroxypyrrolidin-1-yl]-4-oxo-N-[1-(trifluoromethyl)cyclopentyl]-1-(2,4,6-trifluorophenyl)-1,4-dihydro-1,8-naphthyridine-3-carboxamide] | 42 | – | 0.006 µM | – |
| CC(C)(C)[C@H](NC(=O)c1cn(-c2c(F)cc(F)cc2F)c2nc(N3C[C@@H](O)[C@H](O)C3)ccc2c1=O)C(F)(F)F [Example 369, 7-[(3R,4R)-3,4-Dihydroxypyrrolidin-1-yl]-4-oxo-N-[(2S)-1,1,1-trifluoro-3,3-dimethylbutan-2-yl]-1-(2,4,6-trifluorophenyl)-1,4-dihydro-1,8-naphthyridine-3-carboxamide] | 39 | – | 0.008 µM | 95% |

Source: patent US20190367516A1 (Bayer Pharma Aktiengesellschaft, priority 2015, published 2019)
